Results published in ChEMBL document CHEMBL1133369, “Synthesis and preliminary biological evaluation of [3H]-MRE 3008-F20: the first high affinity radioligand antagonist for the human A3 adenosine receptors” (Bioorg Med Chem Lett, 2000).

Columns and labels:
[1] = target: T1, Adenosine receptor A3 (Homo sapiens) (UniProt P0DMS8); assay: Binding affinity against human AAdenosine A3 receptor in CHO cells; type: cell-based
T1 sequence (whole entry): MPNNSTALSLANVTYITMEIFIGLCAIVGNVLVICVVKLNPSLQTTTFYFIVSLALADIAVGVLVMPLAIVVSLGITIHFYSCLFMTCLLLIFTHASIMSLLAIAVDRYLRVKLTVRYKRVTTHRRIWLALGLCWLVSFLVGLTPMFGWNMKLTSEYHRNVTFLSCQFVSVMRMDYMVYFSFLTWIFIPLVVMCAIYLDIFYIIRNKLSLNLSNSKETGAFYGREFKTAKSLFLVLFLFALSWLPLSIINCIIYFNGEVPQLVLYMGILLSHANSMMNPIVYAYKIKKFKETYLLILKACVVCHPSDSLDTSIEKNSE

[2] = target: T2, Adenosine receptor A3 (Homo sapiens, UniProt P0DMS8); assay: Binding affinity against human Adenosine A3 receptor in CHO cells; type: cell-based
T2 sequence (P0DMS8 whole entry): T1 sequence (whole entry)

`C=CCn1cc2c(nc(NC(=O)Nc3ccc(OC)cc3)n3nc(-c4ccco4)nc23)n1` was tested. Which Bmax [1] did it give?
The Bmax was 297 fmol/mg.

And the Kd [2]?
Its Kd is 0.82 nM.
